Results as given in the supplement of paper PMC10307832.

Experiments:
Assay in all cases: relative viability (nuclei count vs DMSO), 5 days (fraction); higher = more cells survive
Linsitinib + Tozasertib = compound: C[C@]1(O)C[C@@H](c2nc(-c3ccc4ccc(-c5ccccc5)nc4c3)c3c(N)nccn32)C1 [Linsitinib] + Cc1cc(Nc2cc(N3CCN(C)CC3)nc(Sc3ccc(NC(=O)C4CC4)cc3)n2)n[nH]1 [Tozasertib] (partner 0.1 µM)
In short: (§1)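 The day after seeding in 1536-well plates, lung cancer cell lines were treated by pin tool with a single drug, or with a fixed anchor-drug dose together with five library-drug doses (not always all listed) in √10 steps. After 5 days, a combined fix-and-stain solution (final 0.05% Triton X-100, 1% formaldehyde, 1 ug/ml Hoechst) was added. Nuclei counted on 4× images gave relative viability as treated counts over vehicle counts, reported as the median of duplicate plates.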

Linsitinib + Bortezomib = compound: C[C@]1(O)C[C@@H](c2nc(-c3ccc4ccc(-c5ccccc5)nc4c3)c3c(N)nccn32)C1 [Linsitinib] + CC(C)C[C@H](NC(=O)[C@H](Cc1ccccc1)NC(=O)c1cnccn1)B(O)O [Bortezomib] (partner 0.002 µM)
In short: as §1

Ispinesib + AZD7762 = compound: Cc1ccc(C(=O)N(CCCN)[C@@H](c2nc3cc(Cl)ccc3c(=O)n2Cc2ccccc2)C(C)C)cc1 [Ispinesib] + NC(=O)Nc1cc(-c2cccc(F)c2)sc1C(=O)N[C@H]1CCCNC1 [AZD7762] (partner 0.2 µM)
In short: as §1

Ispinesib + Luminespib = compound: Cc1ccc(C(=O)N(CCCN)[C@@H](c2nc3cc(Cl)ccc3c(=O)n2Cc2ccccc2)C(C)C)cc1 [Ispinesib] + CCNC(=O)c1noc(-c2cc(C(C)C)c(O)cc2O)c1-c1ccc(CN2CCOCC2)cc1 [Luminespib] (partner 0.01 µM)
In short: as §1

Row | Cell Line | relative viability (Linsitinib + Tozasertib; first compound 0.01 µM) | relative viability (Linsitinib + Tozasertib; first compound 0.03162 µM) | relative viability (Linsitinib + Tozasertib; first compound 0.1 µM) | relative viability (Linsitinib + Tozasertib; first compound 0.3162 µM) | relative viability (Linsitinib + Tozasertib; first compound 1 µM) | relative viability (Linsitinib + Bortezomib; first compound 0.01 µM) | relative viability (Linsitinib + Bortezomib; first compound 0.03162 µM) | relative viability (Linsitinib + Bortezomib; first compound 0.1 µM) | relative viability (Linsitinib + Bortezomib; first compound 0.3162 µM) | relative viability (Linsitinib + Bortezomib; first compound 1 µM) | relative viability (Ispinesib + AZD7762; first compound 0.001 µM) | relative viability (Ispinesib + AZD7762; first compound 0.003162 µM) | relative viability (Ispinesib + AZD7762; first compound 0.01 µM) | relative viability (Ispinesib + AZD7762; first compound 0.03162 µM) | relative viability (Ispinesib + AZD7762; first compound 0.1 µM) | relative viability (Ispinesib + Luminespib; first compound 0.001 µM) | relative viability (Ispinesib + Luminespib; first compound 0.003162 µM) | relative viability (Ispinesib + Luminespib; first compound 0.01 µM) | relative viability (Ispinesib + Luminespib; first compound 0.03162 µM) | relative viability (Ispinesib + Luminespib; first compound 0.1 µM)
1 | HCC-44 | 1.1 | 0.889 | 0.849 | 0.557 | 0.573 | 0.841 | 0.775 | 0.874 | 0.497 | 0.529 | 0.983 | 1.1 | 1.02 | 1.03 | 0.756 | 1.25 | 1.07 | 1.02 | 1.1 | 0.555
2 | HCC-827 | 0.43 | 0.426 | 0.433 |  | 0.393 | 1.04 | 1.04 | 0.934 | 0.827 | 1.01 | 0.229 | 0.21 | 0.146 | 0.198 | 0.197 | 0.69 | 0.536 | 0.876 | 0.482 | 0.529
3 | HOP-62 | 0.356 | 0.336 | 0.335 |  | 0.344 | 0.857 | 0.488 | 1.03 |  | 0.379 | 0.441 | 0.848 | 0.679 | 0.482 | 0.214 | 0.899 | 1.02 | 0.93 | 0.794 | 0.814
4 | LC-2-ad | 0.48 | 0.523 | 0.387 | 0.285 | 0.41 | 1 | 1.1 | 1.02 | 0.664 | 0.636 | 0.942 | 0.941 | 1.02 | 0.425 | 0.322 | 1.08 | 1.3 | 1.05 | 0.915 | 0.396
5 | LCLC-97TM1 | 0.193 | 0.29 | 0.174 | 0.159 | 0.257 | 0.316 | 0.488 | 0.578 | 0.236 | 0.18 | 0.322 | 0.348 | 0.326 | 0.247 | 0.119 | 0.781 | 0.765 | 0.886 | 0.807 | 0.487
6 | LCLC-103H | 0.534 | 0.496 | 0.497 | 0.472 | 0.331 | 1.11 | 0.951 | 1.17 | 1.05 | 0.892 | 0.849 | 0.836 | 0.887 | 0.484 | 0.434 | 0.95 | 1.08 | 1.08 | 0.752 | 0.785
7 | LOU-NH91 | 0.705 | 0.642 | 0.708 | 0.531 | 0.594 | 0.436 | 0.504 | 0.581 | 0.429 | 0.478 | 0.807 | 0.854 | 0.877 | 0.432 | 0.297 | 0.332 | 0.311 | 0.394 | 0.25 | 0.297
8 | LU99A | 0.284 | 0.27 | 0.281 | 0.264 | 0.234 | 1.15 | 1.04 | 1.19 | 0.34 | 0.693 | 0.474 | 0.368 | 0.394 | 0.161 | 0.14 | 0.242 | 0.333 | 0.247 | 0.199 | 0.218
9 | LXF-289 | 0.184 | 0.193 | 0.196 |  | 0.148 | 0.95 | 0.96 | 0.994 | 0.743 | 0.977 | 1.09 | 1.12 | 1.22 | 0.788 | 0.119 | 0.622 | 0.794 | 0.743 | 0.556 | 0.617
10 | NCI-H23 | 0.365 | 0.485 | 0.372 | 0.437 | 0.331 | 0.96 | 1.17 | 1.06 | 0.681 | 0.589 | 0.202 | 0.254 | 0.274 | 0.184 | 0.157 | 0.205 | 0.202 | 0.199 | 0.195 | 0.197
11 | NCI-H322M | 0.44 | 0.455 | 0.568 | 0.399 | 0.463 | 1.24 | 1.12 | 1.44 | 0.922 | 1.19 | 0.561 | 0.654 | 0.464 | 0.494 | 0.484 | 0.992 | 0.888 | 0.729 | 0.612 | 0.58
12 | NCI-H441 | 0.612 | 1.08 | 0.671 | 0.509 | 0.404 | 0.398 | 0.428 | 0.455 | 0.586 | 0.413 | 1.41 | 1.22 | 1.44 | 0.64 | 0.309 | 0.346 | 0.404 | 0.448 | 0.389 | 0.292
13 | NCI-H460 | 0.476 | 0.381 | 0.508 | 0.328 | 0.367 | 1.07 | 1.07 | 1.14 | 0.92 | 1.07 | 0.711 | 0.757 | 1.01 | 0.632 | 0.0769 | 0.022 | 0.0333 | 0.0413 | 0.0267 | 0.0268
